Experimental data as given in PubChem BioAssay AID1956 (SRMLSC, 2009).
Calls of active or inactive are those of the source. Rule as the data show it: active = maximum fold increase above about 1.5; inconclusive = no clear call, values can overlap the other calls; inactive = below that; tested in PC3 cells.

The compounds below were run on HSV replication augmentation in cells, fold increase (assay: compounds boosting herpes simplex virus growth – fold increase, host cell viability (AID 1956)).

Row | Compound | EC50
1 | COc1ccc(OC2C(=O)N(Cc3ccc4c(c3)OCO4)C2c2sccc2C)cc1 (centres undefined) | > 25 µM (inactive)
2 | CC(C(=O)c1c[nH]c2ccccc12)N1CCc2ccccc2C1 (centres undefined) | > 25 µM (inactive)
3 | Cc1cccc(CSc2nnc(-c3cnccn3)n2C)c1 | > 25 µM (inactive)
4 | O=C(O)/C=C/C(=O)Nc1ccc(-n2ccc(C(F)(F)F)n2)cc1 | > 25 µM (inactive)
5 | CCN1C(=O)/C(=C/C=C2\C=CN(CC)c3ccccc32)SC1=S | > 25 µM (inactive)
6 | CCOC(=O)c1c(NC(=O)c2cc3n(n2)C(C(F)(F)F)CC(c2cccs2)N3)sc(C)c1C (centres undefined) | 16.6 µM (inactive)
7 | O=C(C1=NN[C@@H]2C(=O)N(c3cccc(F)c3)C(=O)[C@H]12)c1cnccn1 | > 25 µM (inactive)
8 | COc1ccc(S(=O)(=O)/N=C2/NC(=O)/C(=C\c3ccco3)S2)cc1 | > 25 µM (inactive)
9 | C=CCN1C(=O)[C@]2(c3ccccc31)C1CCCC=C1C(C#N)=C(N)C2(C#N)C#N (some centres undefined) | > 25 µM (inactive)
10 | C[N+]1=C(/C=C/Nc2ccccc2Cl)C(C)(C)c2ccccc21 | > 25 µM (inactive)
11 | Cc1ccc(Cn2ccc(-c3cnc(-c4ccccc4)s3)n2)cc1 | > 25 µM (inactive)
12 | Nc1cccnc1Sc1cc(Cl)c(Cl)cc1Cl | > 25 µM (inactive)
13 | O=C1NC(c2ccccc2)=N/C1=C/c1ccco1 | > 25 µM (inactive)
14 | NNc1nc(-c2ccccc2Cl)nc2sc3c(c12)CCCC3 | > 25 µM (inactive)
15 | Nc1c(Cl)ncnc1N/N=C/c1ccc2ccccc2n1 | 4.3 µM (inactive)
16 | CC(C)Oc1ncnc2c1[nH]c1ccccc12 | 3.18 µM (inactive)
17 | CCc1ccc(NC(=O)COc2ccc(/C=C(/C#N)c3nc4ccccc4[nH]3)cc2OC)cc1 | 24 µM (inactive)
18 | Cn1cc(Br)c(NC(=O)/C=C/C(=O)O)n1 | > 25 µM (inactive)
19 | O=C(c1cc(COc2ccc3ncccc3c2)on1)N1CCC(O)CC1 | > 25 µM (inactive)
20 | COc1ccccc1NC(=O)c1ccc(Br)o1 | > 25 µM (inactive)
21 | Cc1ccc(C(=O)NNC2=Nc3cccc4cccc2c34)cc1 | > 25 µM (inactive)
22 | Nc1ccccc1Nc1cc(-c2ccccc2)[nH]n1 | 10.9 µM (inactive)
23 | Cc1ccc(-c2nc(NC(=O)CSc3nnc4scc(-c5ccccc5)n34)ns2)cc1 | > 25 µM (inactive)

Row | Compound | EC50
24 | COc1ccc(CCc2nnc(CCC(=O)N(C)Cc3ccnc4ccccc34)o2)cc1 | 13.1 µM (inactive)
25 | CCc1ccc2[nH]c(=O)c(CN(Cc3ccccc3OC)Cc3nnnn3Cc3ccco3)cc2c1 | > 25 µM (inactive)
26 | COc1ccccc1OP(=O)(Nc1cccnc1)Oc1ccccc1OC | > 25 µM (inactive)
27 | CC(=O)Nc1ccc(S(=O)(=O)Nc2cc(-c3ccccc3)nn2C)cc1 | > 25 µM (inactive)
28 | O=c1cc(N2CCCCC2)c(-c2ccccc2)nn1Cc1c(Cl)cccc1Cl | > 25 µM (inactive)
29 | CNC(=S)NNC(=O)c1ccc(=O)n(Cc2ccc(Cl)cc2Cl)c1 | > 25 µM (inactive)
30 | CC(C)(C)c1ccc(Cn2c(=N)n(CC(O)c3ccco3)c3ccccc32)cc1 (centres undefined) | 11.4 µM (inactive)
31 | O=C1CCCC2=C1C(c1ccc(Cl)cc1)n1c(s/c(=C\c3ccc4ccncc4c3)c1=O)=N2 (centres undefined) | > 25 µM (inactive)
32 | CCOC(=O)COc1ccc(S(=O)(=O)Nc2ccc(C)cc2)cc1 | > 25 µM (inactive)
33 | Cc1ccc(S(=O)(=O)N(C(=O)c2ccncc2)c2ccc(OC(=O)c3ccncc3)c3ccccc23)cc1 | 18.3 µM (inactive)
34 | COc1cccc(C2C=C(c3ccc(OC)cc3OC)Nc3nnnn32)c1 (centres undefined) | > 25 µM (inactive)
35 | Cc1cccc2nc3c(nc12)-c1ccccc1C3=O | > 25 µM (inactive)
36 | Cc1ccc(-n2nc3c(c2NC(=O)c2ccc(OC(C)C)cc2)CS(=O)C3)cc1 (centres undefined) | > 25 µM (inactive)
37 | O=S(=O)(Nc1ccc(Cc2ccncc2)cc1)c1ccc(Cl)c(Cl)c1 | > 25 µM (inactive)
38 | Oc1ccc(N=Nc2cccc(C(F)(F)F)c2)cc1C=Nc1ccc(N2CCOCC2)cc1 | 18.8 µM (inactive)
39 | CCn1c(/C=C/N(C)c2ccccc2)[n+](CC)c2ccc(Cl)cc21 | 10.2 µM (inactive)
40 | O=C1NC(=O)N(Cc2ccco2)C(=O)/C1=C\c1cccn1CCOc1ccc(Cl)cc1 | > 25 µM (inactive)
41 | CN(CC1CCOCC1)C(=O)CC1C(=O)NCCN1CC1CCCCC1 (centres undefined) | > 25 µM (inactive)
42 | CN1C(=O)C(C2c3ccccc3C(=O)N2Cc2ccc([N+](=O)[O-])cc2)C(=O)N(C)C1=O (centres undefined) | > 25 µM (inactive)
43 | CCOC(=O)C1=C(N)Oc2c(oc(CO)cc2=O)C1c1ccc(Cl)cc1 (centres undefined) | > 25 µM (inactive)
44 | CCN(CC)c1ccc(/C=N/Nc2nc(C)cc(C)n2)cc1 | 23.2 µM (inactive)
45 | O=C1CC(/C=C/c2ccccn2)=Nc2ccccc2N1 | 22.8 µM (inactive)
46 | Cc1nc2ccccc2c2oc(C(=O)N3CCc4ccccc4C3)cc12 | > 25 µM (inactive)

Row | Compound | EC50
47 | Cc1ccc(Cn2c(=N)n(CC(O)c3ccco3)c3ccccc32)cc1 (centres undefined) | > 25 µM (inactive)
48 | CC(=O)c1cccc(NC(=O)/C=C/c2ccc([N+](=O)[O-])s2)c1 | 19 µM (inactive)
49 | NS(=O)(=O)c1ccc(NC(=O)COC(=O)c2c3c(nc4ccccc24)/C(=C\c2ccc4c(c2)OCO4)CCC3)cc1 | > 25 µM (inactive)
50 | CN1C(=O)CC(c2ccco2)Sc2ccccc21 (centres undefined) | > 25 µM (inactive)
51 | COc1cccc(N2CCN(Cc3nc4scc(-c5ccccc5)c4c(=O)[nH]3)CC2)c1 | 21.9 µM (inactive)
52 | CC1(C(O)(C#CCN2CCCCC2)c2ccccc2)CCCC1 (centres undefined) | > 25 µM (inactive)
53 | CCOCCCNC(=S)N1CCCN(c2nc3cc(C)c(C)cc3cc2C#N)CC1 | > 25 µM (inactive)
54 | CCOCCCNC(=O)CN1C(=O)C(CC)Oc2ccccc21 (centres undefined) | > 25 µM (inactive)
55 | CCOC(=O)c1cnc(COc2ccc(OC)cc2)[nH]c1=O | > 25 µM (inactive)
56 | N#C/C(=C\c1ccccc1[N+](=O)[O-])C(=O)NC1CCCCC1 | > 25 µM (inactive)
57 | COc1cccc(C(=O)N2CCN(CCCc3ccccc3)CC2)c1OC | > 25 µM (inactive)
58 | Cc1cccc(N=C2NC(=O)/C(=C/C=C/c3ccco3)S2)c1 | > 25 µM (inactive)
59 | NC(=S)Nc1cc(Cl)cc(Cl)c1 | > 25 µM (inactive)
60 | CCOC(=O)c1c(NC(=O)C2COc3ccccc3O2)sc2c1CCN(Cc1ccccc1)C2 (centres undefined) | > 25 µM (inactive)
61 | CC1(C)CC(=O)C(C=Nc2ccc(C(=O)c3ccccc3)cc2N=CC2=C(O)CC(C)(C)CC2=O)=C(O)C1 | > 25 µM (inactive)
62 | Cc1ccc(Oc2nnc(-c3ccccc3)c3ccccc23)cc1 | > 25 µM (inactive)
63 | CCN(CC)c1ccc(CC2C(=O)N(C)C(=O)N(C)C2=O)cc1 | > 25 µM (inactive)
64 | C=CCNC(=S)Nc1ccc2nc(C)oc2c1 | > 25 µM (inactive)
65 | COc1ccc(C2C(C#N)=C(N)N(c3sc4c(c3C#N)CCCC4)C3=C2C(=O)CC(C)(C)C3)cc1 (centres undefined) | > 25 µM (inactive)
66 | CS(=O)(=O)N1CC2CCCN2c2cc(C(F)(F)F)ccc21 (centres undefined) | > 25 µM (inactive)
67 | COC(=O)c1c(C)[nH]c(O)c1C=Nc1ccc(C(C)C)cc1 | > 25 µM (inactive)
68 | CCCN1C(=O)C2(C(C(=O)c3ccc(C)o3)=C(O)C(=O)N2CCCOC)c2ccccc21 (centres undefined) | > 25 µM (inactive)
69 | Cc1cc(=O)[nH]c(SCC(=O)/C=C2\N(C)c3ccccc3C2(C)C)n1 | > 25 µM (inactive)

Row | Compound | EC50
70 | COC(=O)C1=C(O)C(C(=O)OC)C(c2ccc(C)cc2)C(C#N)(C#N)C1c1ccc(C)cc1 (centres undefined) | > 25 µM (inactive)
71 | O=C(Nc1nc(-c2ccccn2)cs1)c1cccc(-n2cnnn2)c1 | > 25 µM (inactive)
72 | CC(C)N(C(=O)N1CCC(c2nc(-c3ccncc3)no2)CC1)C(C)C | > 25 µM (inactive)
73 | N#C/C(=C\Nc1ccc2cn[nH]c2c1)c1nc(-c2ccc(Cl)cc2)cs1 | 24.4 µM (inactive)
74 | N#CC1=C2N=C(N)c3ccccc3N2C2=C(C(=O)CCC2)C1c1ccc(Cl)cc1 (centres undefined) | > 25 µM (inactive)
75 | O=C(O)/C(=C\c1ccc(Br)cc1)c1ccc(S(=O)(=O)N2CCCCC2)s1 | > 25 µM (inactive)
76 | Cc1ccccc1C(=O)NNc1ccc([N+](=O)[O-])cc1 | > 25 µM (inactive)
77 | Cn1c(C(=O)Nc2ccc3c(c2)OCCO3)cc2c(=O)n(C)c3ccccc3c21 | > 25 µM (inactive)
78 | Cc1ccc(-c2nc(CSCC(=O)N3CCN(c4ccccn4)CC3)c(C)o2)cc1 | 15.7 µM (inactive)
79 | CCCCn1ccnc1C(=O)c1cccc(S(=O)(=O)N2CC(C)CC(C)C2)c1 (centres undefined) | > 25 µM (inactive)
80 | CC(C)(C)c1cc(-c2n[nH]c(=S)n2-c2ccccc2F)n[nH]1 | > 25 µM (inactive)
81 | CC(C)(C)c1ccc(Oc2ccc(N)cn2)cc1 | > 25 µM (inactive)
82 | CC(C)CC(N=C1NC(C)(C)Cc2ccccc21)C(=O)O (centres undefined) | > 25 µM (inactive)
83 | COCc1ccc(C(=O)N2CCCC(C(=O)c3cc(F)ccc3F)C2)s1 (centres undefined) | > 25 µM (inactive)
84 | O=C(Nc1ccccc1C(=O)Nc1ccccc1C(=O)NCc1ccco1)c1ccco1 | > 25 µM (inactive)
85 | OC(CNCc1ccccc1)c1ccccc1 (centres undefined) | > 25 µM (inactive)
86 | CC1=CC(C)(C)Nc2ccc(OC(=O)CN3C(=O)C4CCCCC4C3=O)cc21 (centres undefined) | > 25 µM (inactive)
87 | CSc1nc(Cl)c(Cc2ccc(OC(C)C)cc2)c(N(C)C)n1 | > 25 µM (inactive)
88 | O=C(CC1NCCNC1=O)NC1Cc2ccccc2C1 (centres undefined) | > 25 µM (inactive)
89 | O=C(O)c1ccc(/C=N/Nc2ncc(C(F)(F)F)cc2Cl)cc1 | > 25 µM (inactive)
